This passage reports Kd results from patent US20030073721A1, “Peptide beta-strand mimics based on 1,2-dihydro-3(6H)-pyridinone” (THE REGENTS OF THE UNIVERSITY OF CALIFORNIA, a California …, priority 2001, published 2003).

The target of this assay is homodimer. Briefly: Dimer dissociation constant from concentration dependence of NH chemical shifts (NMR). Format: binding. An excerpt:
Dimerization of the Ach-containing peptide analogs of this invention can be detected by observing changes in NH chemical shifts as a function of concentration. For a dimerization process with dissociation constant Kd and NMR chemical shifts δmono and δdi, respectively, the observed chemical shift, δobs, as a function of concentration c is expressed by the following equation: [formula]
Experimental data were obtained for Ac-Phe-Ach-Leu-Ach-Ile, N-methyl amide and for its corresponding sarcosine-containing peptide corresponding to Ac-Phe-Sar-Leu-Sar-Ile, N-methyl amide, as well as for various other Ach-containing peptide analogs of this invention terminating in carboxylic acid groups rather than N-methyl amide groups, all in CDCl3 or CD3OH/CDCl3 at 25° C.
To distinguish between the two species, the dissociation constants of dimers of each species were determined.

Like-named read-outs stand apart in the source and are kept apart here.

As for `CCC(C)C(NC1=CC(=O)CN(C(=O)C(CC(C)C)NC2=CC(=O)CN(C(=O)C(Cc3ccccc3)NC(C)=O)C2)C1)C(=O)NC` (stereo not drawn) [Ac-Phe-Ach-Leu-Ach-Ile-NHMe, Ac-Phe-Ach-Leu-Ach-Ile, N-Methyl Amide], for the setting “0% CD3OH/CDCl3 (pure CDCl3), 25° C., read-out: Dissociation constant Kd (dimer)”, the Kd amounted to 400 µM.

“Ac-Leu-Ach-Val-Ach-Leu-Ach-Phe-OH [Ach-containing peptide analog (heptamer) terminating in carboxylic acid group]”: the Kd (15% CD3OH/CDCl3, 25° C., read-out: Dissociation constant Kd (dimer)) worked out at 1500 µM.

Regarding “Ac-Phe-Ach-Leu-Ach-Val-OH [Ach-containing peptide analog terminating in carboxylic acid group]”, the Kd is, setting by setting: (2.5% CD3OH/CDCl3, 25° C., read-out: Dissociation constant Kd (dimer)) 90 µM; (5% CD3OH/CDCl3, 25° C., read-out: Dissociation constant Kd (dimer)) 8000 µM; (pure chloroform, extrapolated from Kd vs CD3OH concentration, read-out: Dissociation constant in pure chloroform, extrapolation of the line in FIG. 1) roughly 0.13 µM.

For the compound “Phe-Gly-Ser-D-Pro-Ala-Leu-Ach-Ile [hybrid 1]”, under “5% CD3OH/CDCl3, concentration range 0.6-42 mM, read-out: Dimer dissociation constant”, the Kd was found to be 25000 µM.
